Data: patent publication US20240360174A1, “CELL-PENETRATING PEPTIDE SEQUENCES” (Ohio State Innovation Foundation, priority 2016, published 2024)
Bridge positions count the residues as written; N and C are the ends. Square brackets hold non-standard residues; d marks the D form. Ends that are not written are not given here. Dap = NC[C@H](N)C(=O)O

Test system: HeLa cells
Assay: Cellular uptake / cytosolic delivery efficiency of NF-labelled peptides by flow cytometry
Format: cell-based
Details: 2 h, 5 mM naphthofluorescein-labelled peptide, relative to CPP 1 (100%), mean ± S.D. of three independent experiments
From the text: Absolute cytosolic delivery efficiency is the ratio of cytosolic concentration of a CPP (or a CPP-cargo conjugate) over the concentration of the CPP (or the CPP-cargo conjugate) in the growth medium. Relative cytosolic delivery efficiency refers to the concentration of a CPP in the cytosol compared to the concentration of a control CPP in the cytosol. Quantification can be achieved by fluorescently labeling the CPP (e.g., with a FTIC dye) and measuring the fluorescence intensity using techniques well-known in the art.
In particular embodiments, relative cytosolic delivery efficiency is determined by comparing (i) the amount of a CPP of the invention internalized by a cell type (e.g., HeLa cells) to (ii) the amount of the control CPP internalized by the same cell type. To measure relative cytosolic delivery efficiency, the cell type may be incubated in the presence of a cell-penetrating peptide of the invention for a specified period of time (e.g., 30 minutes, 1 hour, 2 hours, etc.) after which the amount of the CPP internalized by the cell is quantified using methods known in the art, e.g., fluorescence microscopy. Separately, the same concentration of the control CPP is incubated in the presence of the cell type over the same period of time, and the amount of the control CPP internalized by the cell is quantified.
To determine cellular uptake efficiency of the CPPs disclosed herein, HeLa cells were cultured in 12-well plates (1.5×10^5 cells per well) overnight. The cells were incubated for 2 h with […] naphthofluorescein (NF)-labelled peptide in cellular media. At the end of incubation, the cells were washed with DPBS twice, detached from the plate with 0.25% trypsin, diluted into clear DMEM, pelleted at 250 g for 5 min, washed twice with DPBS, resuspended in DPBS, and analyzed on a BD FACS LSR II flow cytometer. For NF-labelled peptides, a 633-nm laser was used for excitation and the fluorescence emission was analyzed in the APC channel. Absolute cellular uptake efficiency was determined by comparing the concentration (via fluorescence intensity) of the CPP in the cytosol to the concentration in the extracellular medium.

How did the “Relative Cytosolic Delivery Efficiency” value turn out when “Ac-(Dap-fFRrRrD) (Ac-[Dap][dF]FR[dR]R[dR]D; not fully specified (bridges); printed as Ac-(Dap-fFRrRrD); also: cyclic, closure sites not given here) [SAR 67]” was run?
The value was 126 ± 33%.

“Ac-(Lys-fFRrRrD) (K[dF]FR[dR]R[dR]D; not fully specified (N-terminus, bridges); printed as Ac-(Lys-fFRrRrD); also: cyclic, closure sites not given here) [SAR 66]” was tested. Which “Relative Cytosolic Delivery Efficiency” value did it give?
Its value is 129 ± 9%.

Which “Relative Cytosolic Delivery Efficiency” value does the source give for SAR 68 (CWWRRRRC; disulfide 1-8) here?
The value was 51%.

With SAR 69 (CWWVRRRRC; disulfide 1-9) as the substance, how does the “Relative Cytosolic Delivery Efficiency” value read?
Its value is 67%.

With SAR 70 (CFWRRRRC; disulfide 1-8) as the substance, how does the “Relative Cytosolic Delivery Efficiency” value read?
The value was 49%.

SAR 71 (CWWWRRRC; disulfide 1-8) was tested. Which “Relative Cytosolic Delivery Efficiency” value did it give?
The value was 135%.

With cyclo(FFFRAQ) (cyclic) [SAR 26] as the substance, how does the “Relative Cytosolic Delivery Efficiency” value read?
The value was 52 ± 2%.

cyclo(FFFRRQ) (cyclic) [SAR 27] was tested. Which “Relative Cytosolic Delivery Efficiency” value did it give?
The value was 125 ± 25%.

How did the “Relative Cytosolic Delivery Efficiency” value turn out when cyclo(FFFRRRQ) (cyclic) [SAR 34] was run?
Its value is 231 ± 43%.

How did the “Relative Cytosolic Delivery Efficiency” value turn out when cyclo(FFFRRRRQ) (cyclic) [SAR 45] was run?
The value was 122 ± 20%.

How did the “Relative Cytosolic Delivery Efficiency” value turn out when cyclo(FFFRRRRRQ (cyclic) [SAR 53] was run?
Its value is 145 ± 27%.

With “cyclo(FFFRRRRRR (FFFRRRRRRQ; cyclic) [SAR 54]” as the substance, how does the “Relative Cytosolic Delivery Efficiency” value read?
Its value is 141 ± 10%.

Which “Relative Cytosolic Delivery Efficiency” value does the source give for cyclo(FFRFRRQ) (cyclic) [SAR 38] here?
Its value is 106 ± 22%.

cyclo(FFRRFRQ) (cyclic) [SAR 39] was tested. Which “Relative Cytosolic Delivery Efficiency” value did it give?
Its value is 86 ± 12%.

With cyclo(FFRRFRRQ) (cyclic) [SAR 50] as the substance, how does the “Relative Cytosolic Delivery Efficiency” value read?
The value was 46 ± 2%.

For cyclo(FFRRRFQ) (cyclic) [SAR 35], which “Relative Cytosolic Delivery Efficiency” value is on record?
The value was 158 ± 21%.

How did the “Relative Cytosolic Delivery Efficiency” value turn out when cyclo(FFRRRQ) (cyclic) [SAR 19] was run?
Its value is 89 ± 34%.

For cyclo(FFRRRRFQ) (cyclic) [SAR 51], which “Relative Cytosolic Delivery Efficiency” value is on record?
Its value is 162 ± 16%.

How did the “Relative Cytosolic Delivery Efficiency” value turn out when cyclo(FFRRRRQ) (cyclic) [SAR 28] was run?
The value was 89 ± 27%.

With “cyclo(FFRrRQ) (cyclo(FFR[dR]RQ); SMILES N=C(N)NCCC[C@@H]1NC(=O)[C@H](Cc2ccccc2)NC(=O)[C@H](Cc2ccccc2)NC(=O)[C@H](CCC(N)=O)NC(=O)[C@H](CCCNC(=N)N)NC(=O)[C@@H](CCCNC(=N)N)NC1=O) [SAR 21]” as the substance, how does the “Relative Cytosolic Delivery Efficiency” value read?
The value was 59 ± 7%.

Which “Relative Cytosolic Delivery Efficiency” value does the source give for “cyclo(FFrRrQ) (cyclo(FF[dR]R[dR]Q); SMILES N=C(N)NCCC[C@@H]1NC(=O)[C@@H](CCCNC(=N)N)NC(=O)[C@H](Cc2ccccc2)NC(=O)[C@H](Cc2ccccc2)NC(=O)[C@H](CCC(N)=O)NC(=O)[C@@H](CCCNC(=N)N)NC1=O) [SAR 20]” here?
Its value is 118 ± 5%.

Which “Relative Cytosolic Delivery Efficiency” value does the source give for cyclo(FRFRFRQ) (cyclic) [SAR 42] here?
The value was 105 ± 14%.

How did the “Relative Cytosolic Delivery Efficiency” value turn out when cyclo(FRFRRQ) (cyclic) [SAR 22] was run?
The value was 15 ± 3%.

Which “Relative Cytosolic Delivery Efficiency” value does the source give for cyclo(FRFRRRQ) (cyclic) [SAR 33] here?
The value was 132 ± 57%.

For cyclo(FRRFFRQ) (cyclic) [SAR 40], which “Relative Cytosolic Delivery Efficiency” value is on record?
Its value is 109 ± 11%.

Which “Relative Cytosolic Delivery Efficiency” value does the source give for cyclo(FRRFFRRQ) (cyclic) [SAR 52] here?
Its value is 127 ± 22%.

For cyclo(FRRFRFQ) (cyclic) [SAR 41], which “Relative Cytosolic Delivery Efficiency” value is on record?
The value was 101 ± 16%.

Which “Relative Cytosolic Delivery Efficiency” value does the source give for cyclo(FRRFRQ) (cyclic) [SAR 23] here?
The value was 38 ± 10%.

With cyclo(FRRFRRQ) (cyclic) [SAR 29] as the substance, how does the “Relative Cytosolic Delivery Efficiency” value read?
The value was 31 ± 3%.

cyclo(FRRRFQ) (cyclic) [SAR 24] was tested. Which “Relative Cytosolic Delivery Efficiency” value did it give?
The value was 25 ± 4%.

cyclo(FRRRFRQ) (cyclic) [SAR 30] was tested. Which “Relative Cytosolic Delivery Efficiency” value did it give?
Its value is 20 ± 3%.

How did the “Relative Cytosolic Delivery Efficiency” value turn out when “cyclo(FfFRrRQ) (cyclo(F[dF]FR[dR]RQ); SMILES N=C(N)NCCC[C@@H]1NC(=O)[C@H](Cc2ccccc2)NC(=O)[C@@H](Cc2ccccc2)NC(=O)[C@H](Cc2ccccc2)NC(=O)[C@H](CCC(N)=O)NC(=O)[C@H](CCCNC(=N)N)NC(=O)[C@@H](CCCNC(=N)N)NC1=O) [SAR 57]” was run?
The value was 218 ± 9%.
